Data published in patent US12440493B2, “Combination therapy for treating cancer comprising substituted piperazines” (Eli Lilly and Company, priority 2020, dated 2025).
Values joined by “and” are separate entries in the source; they are usually repeats but may differ in a detail not shown here. Identical values can stand only once.

What was measured:
[1] = tested on: IDH1(R132H) primary human AML cells; experiment: AML cell differentiation in blood (flow cytometry, % hCD33+hCD11b+ of hCD45+ cells), human AML PDx models in NSG mice; format: in vivo; conditions: for AML cell differentiation (% hCD33 + hCD11b+ (of hCD45+ cells)): 2 mg/kg Cytarabine, IP, (QDx5, rest2)X2) 14 days off)x2, each value one animal, 2 mg/kg
Description: (§1) Compounds and Formulation. For in vivo studies, each test article is prepared at an appropriate concentration with vehicle. […] Compound A is prepared fresh at the appropriate concentrations with vehicle every 7 days and stored at 4° C. between doses. […] Cytarabine is prepared fresh weekly by dilution with sterile saline from stock solution of Cytarabine (injection 20 mg/mL, (Pfizer injectables')). Azacitidine (Sigma, Lot #MKBR7212) is formulated in sterile water and is prepared fresh daily immediately before dosing. In vivo human AML PDx models. […] Two models are used in the studies: […] As needed, splenocytes from tumor-bearing mice are used to propagate and expand the models, as described. Each test article is prepared as described above at an appropriate concentration with vehicle to give animals the doses tested in this study at a dosing volume of 10 μL/gram body weight. Mice receiving Compound A (PO, QD) are treated at the indicated doses for the duration of the study. The combination agents are dosed as follows: […] Treated mice are assessed in comparison to vehicle treated and naïve (non-tumor bearing) control mice. Body weight is recorded twice per week. […] AML PDx model propagation. […] Spleens are processed and splenocytes isolated as described below. Two hundred μL per subject of the splenocyte prep is injected IV (intravenous, tail vein) into recipient NSG mice. […] Once engraftment is confirmed, the mice are monitored biweekly until ready to be put on study. […] Submandibular blood is collected. Spleen/Splenocyte Processing and Prep. After excision, a spleen is weighed, and […] is placed in a standard sterile 15 mL polypropylene conical tube containing PBS, and placed on ice. […] The spleen is placed in ice cold sterile PBS in a 15 mL collection tube. The spleen is removed from the collection tube and placed in a 100 micron 50 mL conical tube cell strainer (BD Falcon #352360). The spleen is processed by gentle rubbing of the spleen tissue against the surface of the cell strainer with the end of a 5 mL syringe plunger in a circular motion. The surface of the strainer is rinsed with 10 mL room temperature sterile DPBS (HyClone SH30028) 3 times during the process. […] The cell pellet is collected by centrifugation (300×g) and washed three times with 30 mL sterile DPBS. The cells are counted and resuspended in DPBS at the desired implant concentration. Bone Marrow Collection. […] Flow cytometry analysis of human white cells. Submandibular blood samples from in vivo studies are collected. Fluor-conjugated antibody stains are added according to the manufacturer's instructions (anti-human CD33-PE (clone WM53, BD Cat #555450), anti-human CD14-APC (clone MφpP9, BD Cat #340436), anti-human CD15-V450 (clone HI98, BD Cat #561584), anti-human CD117-BV421 (clone YB5.B8, BD Cat #562434), anti-human […]7 (clone ICRF44, BD Cat #557754), anti-human […]7 (clone HI30, BD Cat #557748), and anti-human CD3-FITC (clone SK7, BD Cat #340542)). The samples are incubated for 30 minutes at room temperature, protected from light. After the incubation, 1.5 mL 1×BD Lyse/Fix (37° C., (BD #558049)) is added to each sample and incubated for 12 minutes at room temperature. The tubes are centrifuged at 300×g for 7 minutes. BD Lyse/Fix solution is aspirated and the cell pellet washed with stain/wash buffer 3 times (1 wash step consisted of: pellet resuspended in 3 mL stain/wash buffer, centrifuged at 300×g, aspirated wash). Fixed cells are then resuspended in 300 to 400 μL stain/wash buffer. Samples are analyzed on a Becton Dickinson FACSVerse Flow cytometer (Cat #651155 Serial #Z6511550447) using standard flow cytometry principles and techniques. Samples are analyzed on the same day as they are stained and fixed. Population gating and data analysis of percent population are performed in the FACSuite software on the FACSVerse cytometer. Percent population values from the data analysis are plotted in Graphpad Prism or in JMP13. […]

2-HG production = experiment: Plasma 2-HG inhibition (LC-MS metabolite analysis in plasma of AML PDx model); format: in vivo, human
[2] = tested on: IDH1(R132H) primary human AML cells; experiment: Bone marrow AML clearance (flow cytometry), human AML PDx models in NSG mice; format: in vivo
Description: as §1

[3] = tested on: IDH1(R132H) primary human AML cells; experiment: AML clearance in peripheral blood (flow cytometry, % hCD33+hCD45+ of total white cells), human AML PDx models in NSG mice; format: in vivo; conditions: for AML clearance (% hCD33 + hCD45+ (of total white cells)): 2 mg/kg Cytarabine, IP, (QDx5, rest2)X2) 14 days off)x2, each value one animal, 2 mg/kg
Description: as §1

[4] = 2 mg/kg Cytarabine, IP, (QDx5, rest2)X2) 14 days off)x2, each line one animal
[5] = 2 mg/kg Cytarabine, IP, (QDx5, rest2)X2) 14 days off) × 2, each line one animal

`Nc1ccn([C@@H]2O[C@H](CO)[C@@H](O)[C@@H]2O)c(=O)n1` [Cytarabine, reference compound] was tested, and the “AML cell differentiation (% hCD33 + hCD11b+ (of hCD45+ cells))” value ([1]; Treatment day 18) was 15.93% and 18.69% and 13.00% and 11.66% and 14.07% and 10.70% and 11.81%, the “AML cell differentiation (% hCD33 + hCD11b+ (of hCD45+ cells))” value ([1]; Treatment day 34) was 37.13% and 33.07% and 31.02% and 31.17% and 33.03% and 37.1% and the “AML cell differentiation (% hCD33 + hCD11b+ (of hCD45+ cells))” value ([1]; Treatment day 47) was 8.3% and 7.84% and 7.69% and 5.82% and 16.79% and 5.09% and 7.21%. For the same compound, the “AML cell differentiation (% hCD33 + hCD11b+ (of hCD45+ cells))” value ([1]; Treatment day 61) was 9.5% and 8.65% and 9.29% and 6.94% and 10.6% and 7.78% and 8.46%, the “AML cell differentiation (% hCD33 + hCD11b+ (of hCD45+ cells))” value ([1]; Treatment day 75) was 5.65% and 7.65% and 11.09% and 11.48% and 10% and 10.46% and the “AML cell differentiation (% hCD33 + hCD11b+ (of hCD45+ cells))” value ([1]; Treatment day 89) was 8.75% and 10.17% and 8.87% and 18.02% and 12.49% and 11.08%. The “AML cell differentiation (% hCD33 + hCD11b+ (of hCD45+ cells))” value ([1]; Treatment day −3) was 16.46% and 20.43% and 14.95% and 8.62% and 13.39% and 10.09% and 12.17%, the “% AML cell differentiation (treatment group value)” value ([1]; day 47, group C: cytarabine (2 mg/kg), vehicle 10%) was 8% and the “% Inhibition of 2-HG (plasma)” value (2-HG production; [4]) was 78.844% and 68.361% and 88.982% and 79.768% and 71.68% and 76.685% and 68.331%. For the same compound, the “Naive Subtracted 2-HG (plasma)” value (2-HG production; [4]) was 2.348 µM and 3.512 µM and 1.223 µM and 2.246 µM and 3.143 µM and 2.588 µM and 3.515 µM, the “Plasma 2-HG” value (2-HG production; [4]) was 3.256 µM and 4.42 µM and 2.131 µM and 3.154 µM and 4.051 µM and 3.496 µM and 4.423 µM and the “% plasma 2-HG (treatment group value)” value (2-HG production; group C: cytarabine (2 mg/kg), vehicle 100%) was 24%. The “Bone Marrow AML Clearance: % hCD33 + hCD45+ (% of white cells)” value [2, 5] was 64.38% and 75.48% and 39.66% and 80.32%, the “Bone Marrow AML Clearance: % hCD45+ (% of white cells)” value [2, 5] was 71.88% and 78.06% and 44.54% and 80.75% and the “% human AML cells in bone marrow (of white cells; lower = more clearance)” value ([2]; group C: cytarabine (2 mg/kg), vehicle 94%) was 63%. For the same compound, the “AML clearance (% hCD33 + hCD45+ (of total white cells))” value ([3]; Treatment day 18) was 8.04% and 3.22% and 3.24% and 8.64% and 3.23% and 3.50% and 4.40%, the “AML clearance (% hCD33 + hCD45+ (of total white cells))” value ([3]; Treatment day 34) was 9.07% and 2.02% and 3.5% and 2.54% and 1.79% and 2.04% and the “AML clearance (% hCD33 + hCD45+ (of total white cells))” value ([3]; Treatment day 47) was 8.25% and 8.31% and 5.29% and 4.92% and 2.29% and 4.71% and 5.51%. The “AML clearance (% hCD33 + hCD45+ (of total white cells))” value ([3]; Treatment day 61) was 17.63% and 29.86% and 14.99% and 42.59% and 15.49% and 29.04% and 29.58%, the “AML clearance (% hCD33 + hCD45+ (of total white cells))” value ([3]; Treatment day 75) was 56.57% and 60.59% and 22.85% and 59.75% and 36.77% and 44.17% and the “AML clearance (% hCD33 + hCD45+ (of total white cells))” value ([3]; Treatment day 89) was 76.67% and 78.11% and 57.04% and 81.53% and 79.57% and 68.92%. The “AML clearance (% hCD33 + hCD45+ (of total white cells))” value ([3]; Treatment day −3) was 21.32% and 14.8% and 13.68% and 21.94% and 21.7% and 20% and 17.15% and the “% peripheral blood AML cells (treatment group value)” value ([3]; day 47, group C: cytarabine (2 mg/kg), vehicle 86%) was 5.2%.
